Target: T1, hSTING (Homo sapiens, UniProt Q86WV6, G230A/H232R/R293Q/R71H)
T1 construct: host or cells: THP1-Dual KO-IFNAR2 cells
Assay: STING reporter assay: luciferase reporter activity in THP1-Dual KO-IFNAR2 cells stimulated with 2'3'cGAMP
Type: cell-based
Conditions: 15 μM 2'3'cGAMP, 24 h
Method: STING pathway activation by the compounds described herein is measured using THP1-Dual™ cells (KO-IFNAR2).
THP1-Dual™ KO-IFNAR2 Cells (obtained from invivogen) are maintained in RPMI, 10% FCS, 5 ml P/S, 2 mM L-glut, 10 mM Hepes, and 1 mM sodium pyruvate. Compounds are spotted in empty 384 well tissue culture plates (Greiner 781182) by Echo for a final concentration of 0.0017-100 μM. Cells are plated into the TC plates at 40 μL per well, 2×10E6 cells/mL. For activation with STING ligand, 2′3′cGAMP (MW 718.38, obtained from Invivogen), is prepared in Optimem media.
The following solutions are prepared for each 1×384 plate: • Solution A: 2 mL Optimem with one of the following stimuli: • 60 uL of 10 mM 2′3′cGAMP->150 μM stock • Solution B: 2 mL Optimem with 60 μL Lipofectamine 2000->Incubate 5 min at RT
2 mL of solution A and 2 ml Solution B is mixed and incubated for 20 min at room temperature (RT). 20 uL of transfection solution (A+B) is added on top of the plated cells, with a final 2′3′cGAMP concentration of 15 μM. The plates are then centrifuged immediately at 340 g for 1 minute, after which they are incubated at 37° C. 5% CO2, >98% humidity for 24 h. Luciferase reporter activity is then measured. EC50 values are calculated by using standard methods known in the art.
Luciferase reporter assay: 10 μL of supernatant from the assay is transferred to white 384-plate with flat bottom and squared wells, one pouch of QUANTI-Luc™ Plus is dissolved in 25 mL of water. 100 μL of QLC Stabilizer per 25 mL of QUANTI-Luc™ Plus solution is added. 50 μL of QUANTI-Luc™ Plus/QLC solution per well is then added. Luminescence is measured on a Platereader (e.g., Spectramax I3X (Molecular Devices GF3637001)).
Luciferase reporter activity is then measured. EC50 values are calculated by using standard methods known in the art.

T1 sequence (Q86WV6 whole entry R71H/G230A/H232R/R293Q): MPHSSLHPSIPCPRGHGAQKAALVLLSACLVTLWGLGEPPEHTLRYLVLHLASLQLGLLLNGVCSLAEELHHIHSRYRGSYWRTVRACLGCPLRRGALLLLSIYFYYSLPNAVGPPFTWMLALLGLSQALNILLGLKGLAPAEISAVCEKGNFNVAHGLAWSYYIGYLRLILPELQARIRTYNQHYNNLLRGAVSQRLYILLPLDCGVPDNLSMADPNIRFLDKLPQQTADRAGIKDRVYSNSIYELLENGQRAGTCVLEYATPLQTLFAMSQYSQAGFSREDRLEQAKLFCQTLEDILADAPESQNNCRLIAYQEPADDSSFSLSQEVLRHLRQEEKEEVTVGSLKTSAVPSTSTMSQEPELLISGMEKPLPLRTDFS

| SMILES | EC50 [µM] |
| --- | --- |
| CCCCc1ccc(NC(=O)Nc2c[nH]nc2-c2nccs2)cc1 [Compound 43] | < 5 |
| O=C(Nc1ccc(C(F)(F)F)cc1)Nc1c[nH]nc1-c1ccccc1 [Compound 58] | 5 to 100 |
| O=C(Nc1c[nH]nc1-c1ccccc1)NC1CCc2ccccc2C1 (stereo not drawn) [Compound 49] | 5 to 100 |
| CCCCc1ccc(NC(=O)Nc2c[nH]nc2C)cc1 [Compound 41] | 5 to 100 |
| O=C(Nc1ccc(C(F)(F)F)cn1)Nc1c[nH]nc1-c1ccccc1 [Compound 39] | < 5 |
| CCCCC1CCC(NC(=O)Nc2c[nH]nc2-c2ccccc2)CC1 (stereo not drawn) [Compound 54] | 5 to 100 |
| O=C(Nc1ccc(C(F)(F)F)cc1)Nc1cn[nH]c1 [Compound 57] | 5 to 100 |
| O=C(Nc1ccc(C2CCCCC2)nc1)Nc1c[nH]nc1-c1ccccc1 [Compound 36] | < 5 |
| CCCCc1ccc(NC(=O)Nc2c[nH]nc2C2CCCCC2)cc1 [Compound 44] | 5 to 100 |
| CCCCc1ccc(NC(=O)N2CCCc3n[nH]cc32)cc1 [Compound 60] | 5 to 100 |
| O=C(Nc1c[nH]nc1-c1ccccc1)NC1CCC(c2ccccc2)CC1 (stereo not drawn) [Compound 55] | 5 to 100 |
| CC(C)(C)C1CCC(NC(=O)Nc2c[nH]nc2-c2ccccc2)CC1 (stereo not drawn) [Compound 48] | 5 to 100 |
| O=C(Nc1c[nH]nc1-c1ccccc1)NC1CCCc2ccccc21 (stereo not drawn) [Compound 50] | 5 to 100 |
| CCCCc1ccc(NC(=O)Nc2c[nH]nc2-c2ccccc2)cc1 [Compound 59, l-(4-Butylphenyl)-3-(3-phenyl-1H-pyrazol-4-yl)urea] | < 5 |
| CCCCc1ccc(NC(=O)Nc2c[nH]nc2-c2ccsc2)cc1 [Compound 42] | < 5 |
| CCCCc1ccc(NC(=O)Nc2c[nH]nc2-c2ccccc2F)cc1 [Compound 45] | < 5 |
| O=C(Nc1ccc(C2CCCCC2)cn1)Nc1c[nH]nc1-c1ccccc1 [Compound 38] | 5 to 100 |
| O=C(Nc1cccc(C(F)(F)F)c1)Nc1c[nH]nc1-c1ccccc1 [Compound 56] | 5 to 100 |
| CCCCc1cccc(NC(=O)Nc2c[nH]nc2-c2ccccc2)c1 [Compound 46] | 5 to 100 |
| CCCCc1ccc(NC(=O)Nc2c[nH]nc2-c2ccccn2)cc1 [Compound 47] | < 5 |
| CCCCc1ccc(NC(=O)Nc2cn[nH]c2)cc1 [Compound 52] | 5 to 100 |
| O=C(Nc1c[nH]nc1-c1ccccc1)NC1CCCC(c2ccccc2)C1 (stereo not drawn) [Compound 51, 3-(3-Phenyl-1H-pyrazol-4-yl)-1-(3-phenylcyclohexyl)urea] | 5 to 100 |
| O=C(Nc1c[nH]nc1-c1ccccc1)NC1CCC2(CCC2)CC1 [Compound 40] | 5 to 100 |
| O=C(Nc1ccc(C(F)(F)F)nc1)Nc1c[nH]nc1-c1ccccc1 [Compound 37] | 5 to 100 |
